Values quoted from earlier work in article PMC4982639, “Structural Basis of Microtubule Destabilization by Potent Auristatin Anti-Mitotics” (PLoS ONE, 2016).

How the values were obtained:
tubulin dimers = details: in vitro
Source text: This model of curvature between dimers is supported in vitro by the formation of curved spiral or r ...

free tubulin = test system: free tubulin
Source text: (§1) Low resolution crystal structures of dolastatin 10 derivatives in complex with tubulin have further confirmed the region of binding for the auristatins, which overlaps w ...

tubulin = details: compared with vinca alkaloids, free tubulin
Source text: as §1

[1] = test system: cells expressing the CD30 epitope; details: released in the cytosol from the internalized ADC Brentuximab vedotin
Source text: The mechanisms by which these molecules act on tubulin dimers include the induction of curved aggregates and inhibition of nucleotide exchange. MMAE comprises the four amino acids monomethylvaline (MeVal), valine (Val), dolaisoleuine (Dil) and dolaproine (Dap), and the carboxy-terminal amine norephedrine (Fig 1A). This agent provides the cytotoxic activity for the ADC Brentuximab vedotin, currently designated for relapsed Hodgkin lymphoma and anaplastic large cell lymphoma. Bren ...

cellular assays = details: stated in the conclusions as background; no reference given

| Compound | formation of curved aggregates (tubulin dimers) | potency in cellular assays (cellular assays) | further results |
| --- | --- | --- | --- |
| CC[C@]1(O)C[C@@H]2CN(CCc3c([nH]c4ccccc34)[C@@](C(=O)OC)(c3cc4c(cc3OC)N(C)[C@H]3[C@@](O)(C(=O)OC)[C@H](OC(C)=O)[C@]5(CC)C=CCN6CC[C@]43[C@@H]65)C2)C1 [vinblastine] | formation of curved spiral or ring shaped aggregates |  |  |
| cryptophycin | formation of curved spiral or ring shaped aggregates |  |  |
| dolastatin | formation of curved spiral or ring shaped aggregates |  |  |
| dolastatin 10 |  |  | type of inhibition of vinca alkaloids (free tubulin): non-competitive inhibitor of the vinca alkaloids; inhibition of nucleotide exchange (tubulin): much greater inhibition of nucleotide exchange |
| monomethyl auristatin E [MMAE] |  | nano- and picomolar potency | cellular effect of released MMAE [1]: mitotic arrest and apoptosis |
| monomethyl auristatin F [MMAF] |  | nano- and picomolar potency |  |
